Experimental data taken from publication PMC8119466, “A screen of FDA-approved drugs identifies inhibitors of protein tyrosine phosphatase 4A3 (PTP4A3 or PRL-3)” (Scientific Reports, 2021).
Counter-ions that a name gives are not always drawn. Like-named read-outs stand apart in the source and are kept apart here.

Tests used:
Assay type in all cases: biochemical
[1] = target: T1, recombinant PRL-2 (Homo sapiens, UniProt Q12974); assay: In vitro phosphatase assay (DiFMUP hydrolysis), PRL-2;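 note: PRL-2 activity read as DiFMUP hydrolysis after 20 min at room temperature with drug, enzyme first pre-reduced at 4 °C for 20 min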
T1 construct: 6xHis (N, cleaved yes); made in house; host or cells: E. coli One Shot BL21 Star
T1 sequence (Q12974 1-167): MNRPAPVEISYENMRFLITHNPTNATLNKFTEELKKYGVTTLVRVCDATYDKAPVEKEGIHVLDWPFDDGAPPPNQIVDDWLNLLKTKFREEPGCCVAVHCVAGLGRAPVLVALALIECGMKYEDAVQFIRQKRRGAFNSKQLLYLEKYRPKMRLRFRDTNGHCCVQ

[2] = target: T2, recombinant PRL-3 (Homo sapiens, UniProt O75365); assay: In vitro phosphatase assay (DiFMUP hydrolysis), PRL-3; note: test concentration or dose not given here
T2 construct: 6xHis (N, cleaved yes); made in house; host or cells: E. coli One Shot BL21 Star
T2 sequence (O75365 whole entry): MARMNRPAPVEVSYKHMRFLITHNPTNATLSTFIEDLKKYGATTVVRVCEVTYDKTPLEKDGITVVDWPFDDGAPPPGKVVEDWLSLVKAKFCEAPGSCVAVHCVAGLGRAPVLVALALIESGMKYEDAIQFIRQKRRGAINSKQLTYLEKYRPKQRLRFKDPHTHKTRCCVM

[3] = target: T3, recombinant PRL-1 (Homo sapiens, UniProt Q93096); assay: In vitro phosphatase assay (DiFMUP hydrolysis), PRL-1; note: test concentration or dose not given here
T3 construct: 6xHis (N, cleaved yes); made in house; host or cells: E. coli One Shot BL21 Star
T3 sequence (Q93096 1-173): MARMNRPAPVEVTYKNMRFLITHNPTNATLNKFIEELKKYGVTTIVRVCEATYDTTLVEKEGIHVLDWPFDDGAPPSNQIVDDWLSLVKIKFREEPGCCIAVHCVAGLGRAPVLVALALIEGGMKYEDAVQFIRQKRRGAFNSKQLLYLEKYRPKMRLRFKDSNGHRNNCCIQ

[4] = FDA-approved drug screen, activity compared to DMSO
[5] = FDA-approved drug screen, compared to DMSO

| Compound | % Phosphatase Activity (compared to DMSO) PRL-2 [1, 5] | % Phosphatase Activity (compared to DMSO) PRL-3 [2, 5] | % Phosphatase Activity (compared to DMSO) PRL-1 [3, 5] | also measured |
| --- | --- | --- | --- | --- |
| CN[C@H](CC(C)C)C(=O)N[C@H]1C(=O)N[C@@H](CC(N)=O)C(=O)N[C@H]2C(=O)N[C@H]3C(=O)N[C@H](C(=O)N[C@H](C(=O)O)c4cc(O)cc(O)c4-c4cc3ccc4O)[C@H](O)c3ccc(c(Cl)c3)Oc3cc2cc(c3O[C@@H]2O[C@H](CO)[C@@H](O)[C@H](O)[C@H]2O[C@H]2C[C@](C)(N)[C@H](O)[C@H](C)O2)Oc2ccc(cc2Cl)[C@H]1O [Vancomycin HCl] |  |  |  | % Phosphatase Activity (compared to DMSO) PRL-2 [1, 4]: 109%; % Phosphatase Activity (compared to DMSO) PRL-3 [2, 4]: 99%; % Phosphatase Activity (compared to DMSO) PRL-1 [3, 4]: 99% |
| CCN(CC)CC(=O)Nc1c(C)cccc1C [Lidocaine hydrochloride] | 88% | 84% | 97% |  |
| CC1(C)S[C@@H]2[C@H](NC(=O)[C@H](N)c3ccccc3)C(=O)N2[C@H]1C(=O)O [Ampicillin sodium] | 127% | 92% | 120% |  |
| CCCCNc1cc(C(=O)O)cc(S(N)(=O)=O)c1Oc1ccccc1 [Bumetanide] | 128% | 98% | 123% |  |
| Cl.N=C(N)NCCC[C@H](N)C(=O)O [L-Arginine HCl (L-Arg)] | 91% | 104% | 82% |  |
| CC/C(=C(/CC)c1ccc(O)cc1)c1ccc(O)cc1 [Diethylstilbestrol] | 97% | 92% | 86% |  |
| O=C(N[C@H](CO)[C@H](O)c1ccc([N+](=O)[O-])cc1)C(Cl)Cl [Chloramphenicol] | 80% | 83% | 96% |  |
| NCCC(O)(P(=O)([O-])O)P(=O)([O-])O.[Na+].[Na+] [Pamidronate Disodium] | 80% | 91% | 98% |  |
| CC(=O)Nc1nnc(S(N)(=O)=O)s1 [Acetazolamide] | 97% | 88% | 91% |  |
| COC(=O)C1=C(C)NC(C)=C(C(=O)O[C@@H]2CCCN(Cc3ccccc3)C2)[C@@H]1c1cccc([N+](=O)[O-])c1.Cl (racemic) [Benidipine HCl] | 107% | 94% | 91% |  |
| CC1(C)O[C@@H]2C[C@H]3[C@@H]4C[C@H](F)C5=CC(=O)C=C[C@]5(C)[C@@]4(F)[C@@H](O)C[C@]3(C)[C@]2(C(=O)CO)O1 [Fluocinolone Acetonide] | 111% | 82% | 110% |  |
| CO[C@@]1(NC(=O)C(C(=O)O)c2ccc(O)cc2)C(=O)N2C(C(=O)O)=C(CSc3nnnn3C)CO[C@@H]21 (stereo partly drawn) [Moxalactam Disodium] | 97% | 89% | 88% |  |
| O=C(c1ccc(OCCN2CCCCC2)cc1)c1c(-c2ccc(O)cc2)sc2cc(O)ccc12 [Raloxifene HCl] | 96% | 74% | 95% |  |
| CCCc1ncc(C[n+]2ccccc2C)c(N)n1.Cl.[Cl-] [Amprolium HCl] | 97% | 94% | 97% |  |
| CS(=O)(=O)c1ccc([C@@H](O)[C@@H](CF)NC(=O)C(Cl)Cl)cc1 [Florfenicol] | 111% | 75% | 100% |  |
| Nafarelin Acetate | 91% | 91% | 91% |  |
| CC(C)[C@H]1CC[C@H](C(=O)N[C@H](Cc2ccccc2)C(=O)O)CC1 [Nateglinide] | 90% | 73% | 92% |  |
| C=C1/C(=C\C=C2/CCC[C@]3(C)[C@@H]([C@H](C)/C=C/[C@H](C)C(C)C)CC[C@@H]23)C[C@@H](O)C[C@@H]1O [Doxercalciferol] | 99% | 71% | 105% |  |
| CC(=O)O[C@]1(C(C)=O)CC[C@H]2[C@@H]3C=C(Cl)C4=CC(=O)CC[C@]4(C)[C@H]3CC[C@@]21C [Chlormadinone acetate] | 76% | 81% | 85% |  |

| Compound | % Phosphatase Activity (compared to DMSO) PRL-2 [1, 5] | % Phosphatase Activity (compared to DMSO) PRL-3 [2, 5] | % Phosphatase Activity (compared to DMSO) PRL-1 [3, 5] | also measured |
| --- | --- | --- | --- | --- |
| CCCCC1=NC2(CCCC2)C(=O)N1Cc1ccc(-c2ccccc2-c2nnn[nH]2)cc1 [Irbesartan] | 87% | 84% | 95% |  |
| CCOc1ccccc1OCCN[C@H](C)Cc1ccc(OC)c(S(N)(=O)=O)c1 [Tamsulosin] |  |  |  | % Phosphatase Activity (compared to DMSO) PRL-2 [1, 4]: 107%; % Phosphatase Activity (compared to DMSO) PRL-3 [2, 4]: 83%; % Phosphatase Activity (compared to DMSO) PRL-1 [3, 4]: 96% |
| C[C@H](CCC(=O)O)[C@H]1CC[C@H]2[C@@H]3CC[C@@H]4C[C@H](O)CC[C@]4(C)[C@H]3C[C@H](O)[C@]12C [Deoxycholic acid] | 73% | 96% | 89% |  |
| c1ccc(-c2ccc(C(c3ccccc3)n3ccnc3)cc2)cc1 (stereo not drawn) [Bifonazole] | 108% | 94% | 86% |  |
| Cn1cc[nH]c1=S [Methimazole] | 97% | 82% | 104% |  |
| CO/N=C(/C(=O)N[C@@H]1C(=O)N2C(C(=O)[O-])=C(CSc3nc(=O)c([O-])nn3C)CS[C@H]12)c1csc(N)n1.O.O.O.[Na+].[Na+] [Ceftriaxone Sodium Trihydrate] | 115% | 108% | 102% |  |
| CCN(CC)CC#CCOC(=O)C(O)(c1ccccc1)C1CCCCC1 (stereo not drawn) [Oxybutynin] | 99% | 118% | 91% |  |
| CN(Cc1cc(Br)cc(Br)c1N)C1CCCCC1 [Bromhexine HCl] | 122% | 86% | 95% |  |
| Nc1nc2c(ncn2CCC(CO)CO)c(=O)[nH]1 [Penciclovir] | 95% | 74% | 98% |  |
| C[C@H](CCC(=O)O)[C@H]1CC[C@H]2[C@@H]3CC[C@@H]4C[C@H](O)CC[C@]4(C)[C@H]3CC[C@]12C [Lithocholic acid] | 75% | 73% | 82% |  |
| CNCCCC12CCC(c3ccccc31)c1ccccc12 [Maprotiline HCl] |  |  |  | % Phosphatase Activity (compared to DMSO) PRL-2 [1]: 116%; % Phosphatase Activity (compared to DMSO) PRL-3 [2]: 87%; % Phosphatase Activity (compared to DMSO) PRL-1 [3]: 127% |
| COc1ccc(C(=O)CC(=O)c2ccc(C(C)(C)C)cc2)cc1 [Avobenzone] | 68% | 87% | 93% |  |
| [H]/N=C(\N/C(=N/[H])NCCCCCCNC(=N)NC(=N)Nc1ccc(Cl)cc1)Nc1ccc(Cl)cc1 [Chlorhexidine HCl] | 112% | 118% | 97% |  |
| C=C[C@]1(C)C[C@@H](OC(=O)CS[C@@H]2C[C@H]3CC[C@@H](C2)N3C)[C@]2(C)[C@H](C)CC[C@]3(CCC(=O)[C@H]32)[C@@H](C)[C@@H]1O [Retapamulin] | 123% | 67% | 85% |  |
| Cc1cn([C@@H]2C[C@@H](O)[C@H](CO)O2)c(=O)[nH]c1=O [Telbivudine] |  |  |  | % Phosphatase Activity (compared to DMSO) PRL-2 [1, 4]: 89%; % Phosphatase Activity (compared to DMSO) PRL-3 [2, 4]: 80%; % Phosphatase Activity (compared to DMSO) PRL-1 [3, 4]: 106% |
| CC[C@H]1[C@@H](O)[C@@H]2[C@H](CC[C@]3(C)[C@@H]([C@H](C)CCC(=O)O)CC[C@@H]23)[C@@]2(C)CC[C@@H](O)C[C@@H]12 [Obeticholic Acid] | 72% | 90% | 86% |  |
| CCN(CC)Cc1cc(Nc2ccnc3cc(Cl)ccc23)ccc1O.Cl.Cl.O.O [Amodiaquin (dihydrochloride dihydrate)] | 74% | 77% | 84% |  |
| Cc1ccsc1C(=CCCN1CCC[C@@H](C(=O)O)C1)c1sccc1C [Tiagabine hydrochloride] |  |  |  | % Phosphatase Activity (compared to DMSO) PRL-2 [1, 4]: 97%; % Phosphatase Activity (compared to DMSO) PRL-3 [2, 4]: 83%; % Phosphatase Activity (compared to DMSO) PRL-1 [3, 4]: 100% |
